Experimental findings from patent publication US9663528B2, “Substituted 1,2,3,4,6,8,12,12a-octahydro-1,4-methanodipyrido[1,2-a:1',2'-d]pyrazines and methods for treating viral infections” (priority 2012, dated 2017) are described below.

The structures appear in SMILES notation. Read-outs that look alike come from different tables or passages of the source.

The subject of one data set is MT4 cells. In words: in vitro.
In another data set the test system is HIV-IIIb. The data set can be described thus: Antiviral assay in MT4 cells. The class given is cell-based. The conditions noted are these: MT4 cells infected with HIV-IIIb, 5 days incubation; read-out: EC50 nM in MT-4. On the procedure:
For the antiviral assay utilizing MT4 cells, 0.4 μL of […] test concentration of 3-fold serially diluted compound in DMSO was added to 40 μL of cell growth medium (RPMI 1640, 10% FBS, 1% penicilline/Streptomycine, 1% L-Glutamine, 1% HEPES) in each well of 384-well assay plates (10 concentrations) in quidruplicate.
1 mL aliquots of 2×10^6 MT4 cells are pre-infected for 1 and 3 hours respectively at 37° C. with 25 μL (MT4) or of either cell growth medium (mock-infected) or a fresh 1:250 dilution of an HIV-IIIb concentrated ABI stock (0.004 m.o.i. for MT4 cells). Infected and uninfected cells are diluted in cell growth medium and 35 μL of 2000 (for MT4) cells is added to each well of the assay plates.
Assay plates were then incubated in a 37° C. incubator. After 5 days of incubation, 25 μL of 2× concentrated CellTiter-Glo™ Reagent (catalog #G7573, Promega Biosciences, Inc., Madison, Wis.) was added to each well of the assay plate. Cell lysis was carried out by incubating at room temperature for 2-3 minutes, and then chemiluminescence was read using the Envision reader (PerkinElmer).

A further data set can be described thus: in vitro. The conditions noted are these: human.
A short description of data set [1]: Pharmacokinetic analysis following intravenous administration to beagle dogs. The class given is in vivo. The conditions noted are these: male, dog, 0.5 mg/kg; for Vd: read-out: Vss. On the procedure:
(§1) Pharmacokinetic analysis was performed on various test compounds following intravenous or oral administration to beagle dogs.
(§2) For pharmacokinetic analysis of intravenously administered compounds, the test compounds were formulated in 5% Ethanol, 55% PEG 300, and 40% water at 0.1 mg/mL for IV infusion. For pharmacokinetic analysis of orally administered compounds, the test compounds were formulated as an aqueous suspension in 0.1% Tween 20, 0.5% HPMC LV 100 in Di Water at 1 mg/kg.
(§3) Each dosing group consisted of 3 male, non-naïve purebred beagle dogs. At dosing, the animals weighed between 10 to 13 kg. The animals were fasted overnight prior to dose administration and up to 4 hr after dosing. For studies of intravenous administration, the test article was administered to the animals by intravenous infusion over 30 min. The rate of infusion was adjusted according to the body weight of each animal to deliver a dose of 0.5 mg/kg. For studies of oral administration, the test article was administered according to the body weight of each animal to deliver a dose of 1 mg/kg.
For pharmacokinetic analysis of intravenously administered compounds, serial venous blood samples (approximately 1 mL each) were taken from each animal at 0, 0.250, 0.483, 0.583, 0.750, 1.00, 1.50, 2.00, 4.00, 8.00, 12.0, and 24.0 hours after dosing. The blood samples were collected into Vacutainer™ tubes containing EDTA-K2 as the anti-coagulant and were immediately placed on wet ice pending centrifugation for plasma. An LC/MS/MS method was used to measure the concentration of the test compound in plasma. An aliquot of 100 μL of each plasma sample was added to a clean 96 well plate, and 400 μL of cold acetonitrile/internal standard solution (ACN)/(ISTD) was added. After protein precipitation, an aliquot of 110 μL of the supernatant was transferred to a clean 96-well plate and diluted with 300 μL of water. An aliquot of 25 μL of the above solution was injected into a TSQ Quantum Ultra LC/MS/MS system utilizing a Hypersil Gold C18 HPLC column (50×3.0 mm, 5 μm; Thermo-Hypersil Part #25105-053030). An Agilent 1200 series binary pump (P/N G1312A Bin Pump) was used for elution and separation, and an HTS Pal autosampler (LEAP Technologies, Carrboro, N.C.) was used for sample injection. A TSQ Quantum Ultra triple quadrupole mass spectrometer was utilized in selective reaction monitoring mode (Thermo Finnigan, San Jose, Calif.). Liquid chromatography was performed using two mobile phases: mobile phase A contained 1% acetonitrile in 2.5 mM ammonium formate aqueous solution with pH of 3.0, and mobile phase B contained 90% acetonitrile in 10 mM ammonium formate with pH of 4.6. Non-compartmental pharmacokinetic analysis was performed on the plasma concentration-time data. The resulting data are shown in the first three columns of Table 4. In Table 4, CL refers to clearance, which characterizes the rate at which drug is removed from plasma. The lower the clearance of a drug is, the longer the elimination half-life is in the body. Vss refers to the steady state volume of distribution and indicates how well a drug is distributed into the tissues. The larger the Vss is, the longer the elimination half-life is in the body. MRT refers to mean residence time, which is a measure of the average time molecules exist in the body.

A further data set addresses PXR (Homo sapiens (Human), UniProt O75469). In words: Human PXR activation assay (luciferase reporter gene assay, DPX2 cells). In kind it is cell-based. The conditions noted are these: for Emax at 24 h, 15 µM: human. The method, then:
A stably transformed tumor cell line (DPX2) was plated on 96-well microtiter plates. DPX2 cells harbor the human PXR gene (NR112) and a luciferase reporter gene linked to two promoters identified in the human CYP3A4 gene, namely XREM and PXRE. […] The number of viable cells was determined and the reporter gene activity was assessed. Positive control: […]
In general terms: A reporter such as luciferase makes a cellular process visible.

The nature of data set [2]: Pharmacokinetic analysis following oral administration to beagle dogs. The conditions noted are these: 1 mg/kg. The class given is in vivo. The method, then: as §1, §2, §3
For pharmacokinetic analysis of orally administered compounds, serial venous blood samples (approximately 0.3 mL each) were taken from each animal at time points of 0, 0.25, 0.50, 1.0, 2.0, 4.0, 6.0, 8.0, 12.0 and 24.0 hours after dosing. Blood samples were collected, prepared and analyzed in a similar way to the intravenous studies described above. Non-compartmental pharmacokinetic analysis was performed on the plasma concentration-time data. The resulting data are shown in the last three columns of Table 4. In Table 4, F (%) refers to oral bioavailability. Cmax refers to the peak plasma concentration of the compound after administration. AUC refers to area under the curve and is a measure of total plasma exposure of the indicated compound.

Another data set has as its target OCT2 (Homo sapiens (Human), UniProt O15244). The data set can be described thus: OCT2 inhibition assay (14C-TEA uptake, OCT2-transfected MDCKII cells). The class given is cell-based. The method, then: On assay day, cells were trypsinized and resuspended in Krebs-Henseleit Buffer (KHB), pH 7.4 at […]. Cells were preincubated for 15 min in assay plate before addition of test compound or substrate. Test compounds were serially diluted in DMSO and then spiked (2 μL) into in 0.4 mL KHB buffer containing wild-type or OCT2-transfected cells and incubated for 10 minutes. Assay was initiated with the addition of 0.1 mL of 100 μM ^14C-TEA in KHB buffer (20 μM final concentration after mixing). The concentration of TEA is based on the Km. After 10 minutes of incubation, the assay mixture was quenched with addition of 0.5 mL of ice-cold 1×PBS buffer. Samples were then centrifuged at 1000 rpm for 5 min and supernatants were removed. Wash steps were repeated four times with ice-cold PBS. Finally, the cell pellets were lysed with 0.2N NaOH and let sit at room temperature for at least 30 min to ensure complete lysis. Samples were then counted on liquid scintillation counter and dpm counts were used to perform the following calculations.

The mark [3] stands for this setting: plasma, beagle dogs, IV infusion over 30 min.
[4] abbreviates: plasma, beagle dogs, IV infusion over 30 min, read-out: CL (converted).
Where [5] appears, read: plasma, beagle dogs, IV infusion over 30 min, read-out: MRT.
Setting [6] is: 15 μM, relative to maximum fold induction by 10 or 20 μM rifampicin, DPX2 cells, 24 hours, read-out: % Emax at 15 μM.
Setting [7] is: beagle dogs, oral, aqueous suspension.
The mark [8] stands for this setting: male, dog, plasma, beagle dogs, oral, aqueous suspension, read-out: AUC (μM*h) aqueous suspension.
Setting [9] is: male, dog, plasma, beagle dogs, oral, aqueous suspension, read-out: Cmax (μM) aqueous suspension.
Setting [10] is: OCT2 mediated uptake of 14C-TEA (20 μM), MDCKII cells, read-out: IC50.

Sequence of PXR (O75469 whole entry): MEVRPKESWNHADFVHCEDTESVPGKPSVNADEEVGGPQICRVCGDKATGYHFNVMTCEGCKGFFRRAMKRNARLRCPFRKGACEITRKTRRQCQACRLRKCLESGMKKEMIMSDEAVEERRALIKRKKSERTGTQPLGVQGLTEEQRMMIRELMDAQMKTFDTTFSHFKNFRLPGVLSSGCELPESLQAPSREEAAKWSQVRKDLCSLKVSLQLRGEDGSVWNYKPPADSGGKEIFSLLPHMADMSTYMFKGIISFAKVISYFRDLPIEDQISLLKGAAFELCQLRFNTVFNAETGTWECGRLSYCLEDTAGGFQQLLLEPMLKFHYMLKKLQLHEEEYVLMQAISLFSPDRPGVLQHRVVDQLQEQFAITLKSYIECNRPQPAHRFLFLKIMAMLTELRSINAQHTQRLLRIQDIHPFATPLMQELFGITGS
Sequence of OCT2 (O15244 whole entry): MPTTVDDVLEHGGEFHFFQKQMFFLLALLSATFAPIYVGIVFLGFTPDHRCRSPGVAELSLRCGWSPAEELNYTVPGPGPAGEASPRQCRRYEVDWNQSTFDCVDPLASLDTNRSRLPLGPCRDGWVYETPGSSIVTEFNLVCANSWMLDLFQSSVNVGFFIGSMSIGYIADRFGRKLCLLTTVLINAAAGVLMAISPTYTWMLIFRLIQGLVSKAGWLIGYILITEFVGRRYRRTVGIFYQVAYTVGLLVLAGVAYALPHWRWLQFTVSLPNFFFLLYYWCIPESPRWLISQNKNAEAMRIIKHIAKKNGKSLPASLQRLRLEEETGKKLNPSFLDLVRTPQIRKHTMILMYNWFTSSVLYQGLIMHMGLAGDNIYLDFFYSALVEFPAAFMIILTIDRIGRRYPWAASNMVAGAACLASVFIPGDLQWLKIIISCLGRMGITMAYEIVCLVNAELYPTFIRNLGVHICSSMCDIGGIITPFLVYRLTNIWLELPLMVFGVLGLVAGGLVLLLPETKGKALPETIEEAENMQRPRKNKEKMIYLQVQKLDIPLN

With `O=C(NC1(c2ccc(F)cc2F)CC1)c1cn2c(c(O)c1=O)C(=O)N1[C@@H]3CC[C@@H](C3)O[C@H]1C2` [Compound 30, (2S,5R,13aS)-N-(1-(2,4-difluorophenyl)cyclopropyl)-8-hydroxy-7,9-dioxo-2,3,4,5,7,9,13,13a-octahydro-2,5-methanopyrido[1′,2′:4,5]pyrazino[2,1-b][1,3]oxazepine-10-carboxamide], the CC50 in the data set with MT4 cells (human, 5 days) was found to be 6.83 µM. In the data set on HIV-IIIb, the EC50 was 4 nM.
In the case of `O=C(NCc1c(F)cc(F)cc1F)c1cn2c(c(O)c1=O)C(=O)N1[C@H]3CC[C@H](C3)[C@@H]1C2` [Compound 41, (1R,4S,12aR)-7-hydroxy-6,8-dioxo-N-(2,4,6-trifluorobenzyl)-1,2,3,4,6,8,12,12a-octahydro-1,4-methanodipyrido[1,2-a:1′,2′-d]pyrazine-9-carboxamide], the CC50 at 5 days in the data set “in vitro” (CC50 nM in MT-4) came out at 15700 nM. In data set [1] (beagle, in vivo, iv), this compound gave an MRT of 7.5 h and a clearance of 0.25 mL/min/kg. Also, the Vd in data set [1] (setting [3]) came to 0.11 L/kg. The Emax at 24 h, 15 µM at PXR worked out at 11.5%. For the same compound, in data set [2] (male, beagle, dog, in vivo, po), the AUC turned out to be 16.3 µM·h, the Cmax is 2.4 µM and the “F (%) aqueous suspension” value was 10.7%. Besides, on OCT2, the IC50 came out at 2.82 µM.
Take `O=C(NCc1c(F)cc(F)cc1F)c1cn2c(c(O)c1=O)C(=O)N1[C@H]3CC[C@H](C3)O[C@@H]1C2` [Compound 42, (2R,5S,13aR)-8-hydroxy-7,9-dioxo-N-(2,4,6-trifluorobenzyl)-2,3,4,5,7,9,13,13a-octahydro-2,5-methanopyrido[1′,2′:4,5]pyrazino[2,1-b][1,3]oxazepine-10-carboxamide]: the CC50 at 5 days in the data set “in vitro” (MT-4 cells, mock-infected, CC50 nM in MT-4, MT-4 cells, 5 days incubation) came to 3540 nM. Besides, the clearance in data set [1] (setting [4]) was 0.333 mL/min/kg. For the same compound, the MRT in data set [1] (setting [5]) stood at 7.1 h. Further, the Vd in data set [1] (setting [3]) was determined as 0.15 L/kg. Moreover, the Emax at 24 h, 15 µM at PXR (setting [6]) turned out to be 21%. In data set [2] (setting [7]), the “F (%) aqueous suspension” value was determined as 28.0%. For the same compound, in data set [2] (setting [8]), the area under the curve (AUC) stood at 28.6 µM·h. For the same compound, the Cmax in data set [2] (setting [9]) came out at 4.5 µM. In addition, the IC50 on OCT2 (setting [10]) amounted to 0.487 µM.
`O=C(NCc1ccc(F)cc1F)c1cn2c(c(O)c1=O)C(=O)N1[C@H]3CC[C@H](C3)[C@@H]1C2` [Compound 47, (1R,4S,12aR)-N-(2,4-difluorobenzyl)-7-hydroxy-6,8-dioxo-1,2,3,4,6,8,12,12a-octahydro-1,4-methanodipyrido[1,2-a:1′,2′-d]pyrazine-9-carboxamide] displayed a CC50 at 5 days in the data set “in vitro” (CC50 nM in MT-4) of 11300 nM. Also, the Vd in data set [1] (in vivo, beagle dogs, IV infusion over 30 min) was found to be 0.1 L/kg. In data set [1] (setting [4]), the clearance is 0.233 mL/min/kg. The MRT in data set [1] (setting [5]) came out at 7.4 h. Further, the Emax at 24 h, 15 µM at PXR (setting [6]) is 11%. Moreover, the “F (%) aqueous suspension” value in data set [2] (setting [7]) is recorded as 12.6%. The AUC in data set [2] (setting [8]) worked out at 20.4 µM·h. For the same compound, the Cmax in data set [2] (setting [9]) is 2.8 µM. The IC50 at OCT2 (setting [10]) worked out at 6.2 µM.
In turn, `O=C(NCc1c(F)cc(F)cc1F)c1cn2c(c(O)c1=O)C(=O)N1[C@H]3CC[C@H](CC3)[C@H]1C2` [Compound 101, (11R,4R,12aS)-7-hydroxy-6,8-dioxo-N-(2,4,6-trifluorobenzyl)-1,2,3,4,6,8,12,12a-octahydro-1,4-ethanodipyrido[1,2-a:1′,2′-d]pyrazine-9-carboxamide] gave a CC50 in the data set on MT4 cells of 11.6 µM. In the data set with HIV-IIIb, the EC50 came out at 2.1 nM.
Take `O=C(NCc1c(F)cc(F)cc1F)c1cn2c(c(O)c1=O)C(=O)N1[C@H]3CC[C@H](CC3)[C@@H]1C2` [Compound 102, (1S,4S,12aR)-7-hydroxy-6,8-dioxo-N-(2,4,6-trifluorobenzyl)-1,2,3,4,6,8,12,12a-octahydro-1,4-ethanodipyrido[1,2-a:1′,2′-d]pyrazine-9-carboxamide]: in the data set with MT4 cells, the CC50 turned out to be 12 µM. Moreover, the EC50 in the data set with HIV-IIIb is 2.3 nM. For the same compound, the “% Emax at 15 μM” value at PXR (15 μM, relative to maximum fold induction by 10 or 20 μM rifampicin, DPX2 cells, 24 hours) was determined as 123%.

By EC50 is commonly meant the concentration giving half of the maximal effect. Usually MRT stands for a mean duration of stay, worked out from the concentration-time curve. The term Emax denotes the size of the effect at its maximum, as opposed to the concentration needed. For orientation: AUC means the area under the concentration-time curve, a measure of exposure. By Cmax is commonly meant the maximum level reached in the sampled fluid or tissue. In general, IC50 refers to the concentration at which inhibition is half-maximal.
